The subject of experiment [1] is rabbits. In words: BMP-2 induced bone formation in subcutaneously implanted BCP constructs, biomembrane pocket model. The class given is in vivo, rabbit.
Method: For the comparative study (Table 2), inflammatory stimuli were added to the BCP, alone or in combination with BMP-2. Either 1.5 μg of BMP-2 or PBS (15 μl volume) was first applied. Fibrin glue (Tissucol 500®, Baxter, Deerfield, Ill., USA) was subsequently used (55 μl volume) to load the inflammatory mediators onto the constructs. For this purpose, the mediators were resuspended in 27.5 μl of the thrombin component (diluted 1:50 in PBS), then mixed with 27.5 μl of the fibrinogen component (diluted 1:30 in PBS) and immediately pipetted onto the BCP scaffolds. The control samples were treated with fibrin glue alone. The constructs were prepared on the day of surgery and stored in a humidified environment at 37° C. until implantation.
After shaving and disinfecting the skin with 10% povidone-iodine, a midline incision was made to expose the paraspinal muscles. In the rabbits, four intramuscular pockets were created on each side by blunt dissection for implantation of the PMMA discs (FIG. 2B). The same discs were implanted in subcutaneous pockets via the same approach. Pockets were closed with a non-resorbable suture (Prolene®, Ethicon, USA), followed by closure of the skin (Monocryl®, Ethicon). At the second surgery, an incision was made in the membrane surrounding the PMMA disc, the disc was replaced by a BCP construct, and the opening was sutured (Prolene®, Ethicon). […] Fluorochrome labels were injected subcutaneously to determine the onset and location of new bone formation (van Gaalen et al., 2010): calcein green (10 mg/kg s.c. in 0.2 M NaHCO3, Sigma), oxytetracycline (25 mg/kg s.c. in 50/50 PBS/demineralised water, Merck Millipore, Billerica, USA) xylenol orange (30 mg/kg s.c. in 0.12 M NaHCO3, Sigma). The incorporation of fluorochromes in the bone was examined by fluorescence microscopy on methyl methacrylate-embedded sections. The rabbits were killed 12 weeks after the second surgery under general anesthesia, by intravenous Pentobarbital (Euthanimal®, Alfasan Nederland BV, Woerden, The Netherlands). The rats were killed with CO2, 8 weeks after the second surgery.
After retrieval of the constructs, a quarter of each sample was removed for decalcification and paraffin embedding. The remaining material was fixed in 4% paraformaldehyde, dehydrated by an ethanol series and embedded in methyl methacrylate (MMA, Merck Millipore).
Experiment [2] concerns rabbits. In words: bone induction in intramuscularly implanted BCP constructs without BMP-2, biomembrane pocket model. The class given is in vivo, rabbit. To be noted: TNF-α 1, 10, 100 ng, no BMP-2, intramuscular, 12 weeks. As to the method:
First, an assessment study was performed to verify the potential for ectopic bone formation in the biomembrane pocket model. […] The bone volume (area%) in the BCP constructs was the primary outcome after 8 (rats) or 12 (rabbits) weeks. Subsequently, the rabbit model (n=11) was used to 1) screen for the potential of inflammatory stimuli to induce bone intramuscularly and to 2) screen for the effects of inflammatory stimuli on BMP-induced bone formation subcutaneously. The bone volume (area%) in the BCP constructs was the primary outcome after 12 weeks.
Fibrin glue (Tissucol 500®, Baxter, Deerfield, Ill., USA) was subsequently used (55 μl volume) to load the inflammatory mediators onto the constructs. […]
After shaving and disinfecting the skin with 10% povidone-iodine, a midline incision was made to expose the paraspinal muscles. […] The incorporation of fluorochromes in the bone was examined by fluorescence microscopy on methyl methacrylate-embedded sections. […]
After retrieval of the constructs, a quarter of each sample was removed for decalcification and paraffin embedding. […] The samples were completely sectioned and scored for the presence of bone. Two mid-sections were pseudo-coloured in Adobe Photoshop CS6 (Adobe Systems, San Jose, USA) to quantify the percentage of bone in the available pore space (bone area %). […]

In turn, TNF-α returned a bone area % in experiment [1] (10 ng TNF-α with 1.5 μg BMP-2, subcutaneous, 12 weeks, p=0.005 vs control) of 13.6±9.9 area %. In experiment [1] (BCP constructs with 1.5 μg BMP-2 and 10 ng TNF-α vs BMP-2 alone), the “4-week fluorochrome label (calcein) incorporation in bone” value is “observed less frequently”. Further, the “8-week fluorochrome label (xylenol orange) incorporation in bone” value in experiment [1] (BCP constructs with 1.5 μg BMP-2 and 10 ng TNF-α vs BMP-2 alone, gross examination) is listed as “more abundant”. Also, the “effect on BMP-2 induced bone formation (in words)” value in experiment [1] (all doses, with 1.5 μg BMP-2, subcutaneous, 12 weeks) is listed as “stimulatory effect”. Further, in experiment [1] (higher than 10 ng TNF-α, with 1.5 μg BMP-2, subcutaneous, 12 weeks), the “bone formation at a higher concentration of TNF-α” value is on record as “reduction of bone formation”. Besides, in experiment [2], the “concentration dependence of bone induction” value is “no concentration dependence” and the “number of constructs with bone formation” value was found to be 2 constructs.
